Assay results taken from patent US20240239806A1, “COMPOUNDS, COMPOSITIONS AND METHODS OF TREATING DISORDERS” (Chengdu Anticancer Bioscience, Ltd., priority 2021, published 2024).
Where two headings read alike, the source gives them in different places.

Legend:
Assay type in all cases: cell-based
[1] = tested on: RPEMYC^H2B-GFP cells; experiment: Phenotypic screening assay (mitotic arrest, polyploidy); details: 1 nM to 30 μM; for IC50: read-out: Proliferative arrest (>50%)
Method in brief: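 RPE cells expressing MYC and H2B-EGFP treated with compound at 1 nM–30 μM; mitotic index scored at 24 h and polyploidy (DNA content) at 48 h by automated imaging, with reads at 24, 48 or 72 h. Hits show transient mitotic arrest followed by polyploid accumulation.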

[2] = tested on: MDA-MB-231; experiment: MECP in cancer cell line; details: Homo sapiens
Method in brief: (§1)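 Cells grown in DMEM with 5% FBS at 37° C, 5% CO2, then treated at 1 nM to 30 μM. Imaging at 24, 48 or 72 h scored mitotic arrest or DNA-content change; hits show transient mitotic-index rise at 24 h and polyploid accumulation at 48 h; values binned A (≤1.0 μM) to D (>30.0 μM).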

[3] = tested on: Hela; experiment: MECP in cancer cell line; details: Homo sapiens
Method in brief: as §1

[4] = tested on: HCT116; experiment: MECP in cancer cell line; details: Homo sapiens, HCT-116
Method in brief: as §1

[5] = tested on: NCI-H460; experiment: MECP in cancer cell line; details: Homo sapiens
Method in brief: as §1

[6] = tested on: T98G; experiment: MECP in cancer cell line; details: Homo sapiens
Method in brief: as §1

[7] = tested on: NCI-H596; experiment: MECP in cancer cell line; details: Homo sapiens
Method in brief: as §1

[8] = tested on: T2 HCC; experiment: MECP in cancer cell line; details: Mus musculus
Method in brief: as §1

[9] = tested on: NCI-H23; experiment: MECP in cancer cell line; details: Homo sapiens
Method in brief: as §1

[10] = tested on: NCI-H23; experiment: MTT assay of cellular proliferation; details: Homo sapiens, 50% inhibition of cellular proliferation
Method in brief: (§2)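 Cells in DMEM with 5% FBS, seeded to 20–30% confluence over 15–24 h, then exposed to compound from 1 nM to 30 μM. MTT added at endpoint for 3–4 h, formazan solubilized and read at A570. EC50 taken as concentration giving 50% inhibition of proliferation.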

[11] = tested on: MDA-MB-231; experiment: MTT assay of cellular proliferation; details: Homo sapiens; MDA-MB-231, MTT, 50% inhibition of cellular proliferation
Method in brief: as §2

[12] = tested on: Hela; experiment: MTT assay of cellular proliferation; details: Homo sapiens, 50% inhibition of cellular proliferation
Method in brief: as §2

[13] = tested on: NCI-H460; experiment: MTT assay of cellular proliferation; details: Homo sapiens, 50% inhibition of cellular proliferation
Method in brief: as §2

[14] = tested on: T98G; experiment: MTT assay of cellular proliferation; details: Homo sapiens, 50% inhibition of cellular proliferation
Method in brief: as §2

[15] = tested on: NCI-H596; experiment: MTT assay of cellular proliferation; details: Homo sapiens, 50% inhibition of cellular proliferation
Method in brief: as §2

[16] = tested on: T2 HCC; experiment: MTT assay of cellular proliferation; details: Mus musculus, 50% inhibition of cellular proliferation
Method in brief: as §2

[17] = read-out: Min. Effective conc. for Polyploidy (≥5%)

| EC50 [10] | EC50 [11] | EC50 [12] | EC50 [13] | EC50 [15] | EC50 [16] | SMILES | minimal effective concentration [1, 17] | minimal effective concentration ([1]; read-out: Mitotic Arrest (≥5%)) | IC50 [1] | minimal effective concentration [2] | minimal effective concentration [3] | minimal effective concentration [4] | minimal effective concentration [5] | minimal effective concentration [6] | minimal effective concentration [7] | minimal effective concentration [8] | minimal effective concentration [9] | EC50 [14] | other results |
| --- | --- | --- | --- | --- | --- | --- | --- | --- | --- | --- | --- | --- | --- | --- | --- | --- | --- | --- | --- |
| 1 to 1000 nM | 1 to 1000 nM | 1 to 1000 nM | > 30000 nM | 1 to 1000 nM | 1 to 1000 nM | COC(=O)c1cc(OC)cc(Oc2ncnc3cc[nH]c23)c1 [Compound 34, methyl 3-((5H-pyrrolo[3,2-d]pyrimidin-4-yl)oxy)-5-methoxybenzoate] | 0.001 to 1 µM | 0.001 to 1 µM | 1 to 1000 nM | 0.001 to 1 µM | 0.001 to 1 µM | 0.001 to 1 µM | 1 to 10 µM | 1 to 10 µM | 0.001 to 1 µM | 0.001 to 1 µM | 0.001 to 1 µM | > 30000 nM |  |
| 1 to 1000 nM | 1 to 1000 nM | 1 to 1000 nM | > 30000 nM | 1 to 1000 nM | 1 to 1000 nM | COC(=O)c1cc(Oc2ncnc3cc[nH]c23)cc(C(=O)OC)c1 [Compound 36, dimethyl 5-((5H-pyrrolo[3,2-d]pyrimidin-4-yl)oxy)isophthalate] | 0.001 to 1 µM | 0.001 to 1 µM | 1 to 1000 nM | 0.001 to 1 µM | 0.001 to 1 µM | 0.001 to 1 µM | 1 to 10 µM | 0.001 to 1 µM | 0.001 to 1 µM | 0.001 to 1 µM | 0.001 to 1 µM | 1 to 1000 nM |  |
| 1 to 1000 nM | 1 to 1000 nM | 1 to 1000 nM | > 30000 nM | 1 to 1000 nM | 1 to 1000 nM | COC(=O)c1cc(OC)cc(Oc2ncnc3ccsc23)c1 [Compound 37, methyl 3-methoxy-5-(thieno[3,2-d]pyrimidin-4-yloxy)benzoate] | 0.001 to 1 µM | 0.001 to 1 µM | 1 to 1000 nM | 0.001 to 1 µM | 0.001 to 1 µM | 0.001 to 1 µM | 1 to 10 µM | 1 to 10 µM | 0.001 to 1 µM | 0.001 to 1 µM | 0.001 to 1 µM | > 30000 nM |  |

Continued, compound first:

| SMILES | EC50 [10] | EC50 [11] | EC50 [12] | EC50 [13] | EC50 [15] | EC50 [16] | minimal effective concentration [1, 17] | minimal effective concentration ([1]; read-out: Mitotic Arrest (≥5%)) | IC50 [1] | minimal effective concentration [2] | minimal effective concentration [3] | minimal effective concentration [4] | minimal effective concentration [5] | minimal effective concentration [6] | minimal effective concentration [7] | minimal effective concentration [8] | minimal effective concentration [9] | EC50 [14] | other results |
| --- | --- | --- | --- | --- | --- | --- | --- | --- | --- | --- | --- | --- | --- | --- | --- | --- | --- | --- | --- |
| COc1cc(OC)cc(Oc2ccnc3ccccc23)c1 [Compound 7, 4-(3,5-dimethoxyphenoxy)quinoline] | 1 to 1000 nM | 1 to 1000 nM | 1000 to 10000 nM | 1000 to 10000 nM | 1000 to 10000 nM | 1000 to 10000 nM | 0.001 to 1 µM | 0.001 to 1 µM | 1 to 1000 nM | 0.001 to 1 µM | 0.001 to 1 µM | 0.001 to 1 µM | 1 to 10 µM | 0.001 to 1 µM | 0.001 to 1 µM | 1 to 10 µM | 0.001 to 1 µM | 1 to 1000 nM |  |
| COC(=O)c1cc(OC)cc(Oc2ncnc3cc(OC)c(OC)cc23)c1 [Compound 29] | 1 to 1000 nM | 1 to 1000 nM | 1 to 1000 nM | > 30000 nM | 1 to 1000 nM | 1 to 1000 nM | 0.001 to 1 µM | 0.001 to 1 µM | 1 to 1000 nM | 1 to 10 µM | 0.001 to 1 µM | 1 to 10 µM | 1 to 10 µM | 1 to 10 µM | 0.001 to 1 µM | 0.001 to 1 µM | 0.001 to 1 µM | 1000 to 10000 nM |  |
| COC(=O)c1cc(Oc2ncnc3ccsc23)cc(C(=O)OC)c1 [Compound 39, dimethyl 5-(thieno[3,2-d]pyrimidin-4-yloxy)isophthalate] | 1 to 1000 nM | 1 to 1000 nM | 1 to 1000 nM | > 30000 nM | > 30000 nM | 1 to 1000 nM | 0.001 to 1 µM | 0.001 to 1 µM | 1 to 1000 nM | 0.001 to 1 µM | 0.001 to 1 µM | 0.001 to 1 µM | 1 to 10 µM | 0.001 to 1 µM | 0.001 to 1 µM | 0.001 to 1 µM | 0.001 to 1 µM | 1 to 1000 nM | Min. Effective conc. for Polyploidy (≥5%) [1]: B (a value greater than 1.00 μM and less than or equal to 10.0 μM); Mitotic Arrest (≥5%) [1]: B (a value greater than 1.00 μM and less than or equal to 10.0 μM); Proliferative arrest (>50%) [1]: B (a value greater than 1.00 μM and less than or equal to 10.0 μM); Along with Cell Death ([1]; listed as 33): B (a value greater than 1.00 μM and less than or equal to 10.0 μM) |
